Holding throughout (type): cell-based
Experiment [1] concerns the target T1, ASIC3 (Rattus norvegicus, UniProt O35240).
T1 sequence (O35240 1-533): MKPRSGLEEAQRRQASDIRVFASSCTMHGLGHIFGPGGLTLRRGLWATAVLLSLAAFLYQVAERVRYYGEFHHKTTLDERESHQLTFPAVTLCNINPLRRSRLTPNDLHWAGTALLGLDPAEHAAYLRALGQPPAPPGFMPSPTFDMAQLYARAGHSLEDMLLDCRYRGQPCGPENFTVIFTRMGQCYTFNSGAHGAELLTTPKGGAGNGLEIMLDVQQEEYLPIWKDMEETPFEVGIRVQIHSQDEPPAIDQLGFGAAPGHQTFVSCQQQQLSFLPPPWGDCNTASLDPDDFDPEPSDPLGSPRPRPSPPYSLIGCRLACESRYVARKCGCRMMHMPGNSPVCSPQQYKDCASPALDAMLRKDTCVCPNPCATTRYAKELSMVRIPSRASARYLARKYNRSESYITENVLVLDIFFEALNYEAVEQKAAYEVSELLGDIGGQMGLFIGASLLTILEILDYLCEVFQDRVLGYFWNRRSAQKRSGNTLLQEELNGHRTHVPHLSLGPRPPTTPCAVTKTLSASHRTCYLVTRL
Kind of experiment: whole-cell patch clamp, concentration dependence of shift of activation pH0.[…]. (Patch clamp records ionic current or voltage across a cell membrane.)

The target of experiment [2] is T1, ASIC3. Kind of experiment: whole-cell patch clamp.
Experiment [3] deals with T1, ASIC3. Kind of experiment: whole-cell patch clamp, shift of activation pH0.[…].

As for `CCCCC/C=C\C/C=C\C/C=C\C/C=C\CCCC(=O)O` [AA, arachidonic acid], the EC50 (commonly the midpoint of the concentration-response curve) on ASIC3 [1] turned out to be 11 ± 2 µM. As for `CC/C=C\C/C=C\C/C=C\C/C=C\C/C=C\CCCCCC(=O)O` [DPA, docosapentaenoic acid], the “whole-cell patch clamp; pH0.5 shift at 10 μM and concentration dependence at pH” value on ASIC3 [2] is 0.27 ΔpH0.5 at 10 µM. With `CCCCC/C=C\C/C=C\C/C=C\C/C=C\CCCC(=O)NCC(=O)O` [AG, arachidonyl glycine], the concentration giving a half-maximal response (EC50) at ASIC3 [3] is 5.4 ± 1.12 µM.

The values are drawn from PMC9120901 (The Journal of General Physiology, 2022).
